Measurements: PubChem BioAssay AID248 (DTP/NCI, 2004)
Where “and” joins values, the source holds several entries; their conditions need not be identical. Equal values may be shown once. Toxic doses and inconclusive results are not listed. Cut-off read from the data, not from the text of the source: active = T/C of 150% or more; inactive = T/C below 125%. Peptide text beside a SMILES is read from it.

Tested on: L1210 leukemia ip in BDF1 mice, survival T/C
Assay: NCI In Vivo Anticancer Drug Screen. Data for tumor model L1210 Leukemia (intraperitoneal) in B6D2F1 (BDF1) mice
Settings: endpoint: mean survival time, higher = longer survival
Method in brief: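 Read-out is survival time, reported as the treated-group measurement over the vehicle-control measurement.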

[1] = dose: 100.0 mg/kg/injection, schedule: Q04DX003 (ip), vehicle: saline with Tween-80
[2] = dose: 200.0 mg/kg/injection, schedule: Q04DX003 (ip), vehicle: saline with Tween-80
[3] = dose: 400.0 mg/kg/injection, schedule: Q04DX003 (ip), vehicle: saline with Tween-80
[4] = dose: 50.0 mg/kg/injection, schedule: Q01DX009 (ip), vehicle: Klucel (hydroxypropylcellulose) (HPC)
[5] = dose: 100.0 mg/kg/injection, schedule: Q01DX009 (ip), vehicle: Klucel (hydroxypropylcellulose) (HPC)
[6] = dose: 100.0 mg/kg/injection, schedule: Q04DX003 (ip), vehicle: Klucel (hydroxypropylcellulose) (HPC)
[7] = dose: 200.0 mg/kg/injection, schedule: Q04DX003 (ip), vehicle: Klucel (hydroxypropylcellulose) (HPC)
[8] = dose: 400.0 mg/kg/injection, schedule: Q04DX003 (ip), vehicle: Klucel (hydroxypropylcellulose) (HPC)
[9] = dose: 100.0 mg/kg/injection, schedule: Q04DX002 (ip), vehicle: Klucel (hydroxypropylcellulose) (HPC)
[10] = dose: 200.0 mg/kg/injection, schedule: Q04DX002 (ip), vehicle: Klucel (hydroxypropylcellulose) (HPC)
[11] = dose: 400.0 mg/kg/injection, schedule: Q04DX002 (ip), vehicle: Klucel (hydroxypropylcellulose) (HPC)
[12] = dose: 100.0 mg/kg/injection, schedule: Q01DX001 (ip), vehicle: Klucel (hydroxypropylcellulose) (HPC)
[13] = dose: 200.0 mg/kg/injection, schedule: Q01DX001 (ip), vehicle: Klucel (hydroxypropylcellulose) (HPC)
[14] = dose: 100.0 mg/kg/injection, schedule: Q01DX001 (ip), vehicle: carboxymethylcellulose (CMC)
[15] = dose: 200.0 mg/kg/injection, schedule: Q01DX001 (ip), vehicle: carboxymethylcellulose (CMC)
[16] = dose: 400.0 mg/kg/injection, schedule: Q01DX001 (ip), vehicle: carboxymethylcellulose (CMC)
[17] = dose: 100.0 mg/kg/injection, schedule: Q01DX001 (ip), vehicle: saline with Tween-80
[18] = dose: 200.0 mg/kg/injection, schedule: Q01DX001 (ip), vehicle: saline with Tween-80
[19] = dose: 400.0 mg/kg/injection, schedule: Q01DX001 (ip), vehicle: saline with Tween-80
[20] = dose: 50.0 mg/kg/injection, schedule: Q01DX009 (ip), vehicle: saline with Tween-80
[21] = dose: 100.0 mg/kg/injection, schedule: Q01DX009 (ip), vehicle: saline with Tween-80
[22] = dose: 200.0 mg/kg/injection, schedule: Q01DX009 (ip), vehicle: saline with Tween-80
[23] = dose: 100.0 mg/kg/injection, schedule: Q04DX002 (ip), vehicle: saline with Tween-80
[24] = dose: 200.0 mg/kg/injection, schedule: Q04DX002 (ip), vehicle: saline with Tween-80
[25] = dose: 400.0 mg/kg/injection, schedule: Q04DX002 (ip), vehicle: saline with Tween-80
[26] = dose: 200.0 mg/kg/injection, schedule: Q01DX009 (ip), vehicle: Klucel (hydroxypropylcellulose) (HPC)

Measured: T/C

CC1CC(OC(=O)CCN2CC2)CC(C)(C)C1 (stereo unspecified)
inactive: dose: 2.5 mg/kg/injection, schedule: Q01DX009 (ip), vehicle: Klucel (hydroxypropylcellulose) (HPC) 98 % of control | dose: 5.0 mg/kg/injection, schedule: Q01DX009 (ip), vehicle: Klucel (hydroxypropylcellulose) (HPC) 101 % of control | dose: 20.0 mg/kg/injection, schedule: Q01DX009 (ip), vehicle: Klucel (hydroxypropylcellulose) (HPC) 113 % of control | dose: 20.0 mg/kg/injection, schedule: Q04DX003 (ip), vehicle: Klucel (hydroxypropylcellulose) (HPC) 101 % of control | dose: 40.0 mg/kg/injection, schedule: Q01DX009 (ip), vehicle: Klucel (hydroxypropylcellulose) (HPC) 107 % of control | dose: 40.0 mg/kg/injection, schedule: Q04DX003 (ip), vehicle: Klucel (hydroxypropylcellulose) (HPC) 97 % of control | dose: 80.0 mg/kg/injection, schedule: Q04DX003 (ip), vehicle: Klucel (hydroxypropylcellulose) (HPC) 106 % of control

Cc1cc(N(CCCl)CCCl)ccc1C=Nc1ccccc1-n1ccnc1C
inactive: dose: 75.0 mg/kg/injection, schedule: Q04DX002 (ip), vehicle: Klucel (hydroxypropylcellulose) (HPC) 98 % of control | dose: 150.0 mg/kg/injection, schedule: Q04DX002 (ip), vehicle: Klucel (hydroxypropylcellulose) (HPC) 98 % of control | dose: 300.0 mg/kg/injection, schedule: Q04DX002 (ip), vehicle: Klucel (hydroxypropylcellulose) (HPC) 98 % of control

CCCCCCCCCCCCOP(OCCCCCCCCCCCC)OCCCCCCCCCCCC
inactive: dose: 100.0 mg/kg/injection, schedule: Q01DX009 (ip), vehicle: saline 90 % of control | dose: 200.0 mg/kg/injection, schedule: Q01DX009 (ip), vehicle: saline 88 % of control | dose: 400.0 mg/kg/injection, schedule: Q01DX009 (ip), vehicle: saline 93 % of control

Cc1cnc(Br)c(Br)c1
inactive: [1] 102 % of control | [2] 100 % of control | [3] 102 % of control

O=C(CBr)NCC(S)c1ccc(Cl)cc1 (stereo unspecified)
inactive: [4] 97 % of control | [5] 95 % of control | [6] 93 % of control | [7] 88 % of control | [8] 102 % of control

CCCn1c2c(c(=O)n(CC)c1=O)SC(OCC)C(=O)N2 (stereo unspecified)
inactive: dose: 78.0 mg/kg/injection, schedule: Q01DX Z (ip), vehicle: other 96 % of control and 103 % of control | dose: 116.0 mg/kg/injection, schedule: Q01DX Z (ip), vehicle: other 108 % of control and 110 % of control | dose: 175.0 mg/kg/injection, schedule: Q01DX Z (ip), vehicle: other 116 % of control and 87 % of control | dose: 262.5 mg/kg/injection, schedule: Q01DX Z (ip), vehicle: other 92 % of control

O=C(/C=C/c1ccco1)c1ccc(O)cc1
inactive: [9] 101 % of control | [10] 90 % of control | [11] 93 % of control

O=[N+]([O-])c1ccccn1
inactive: dose: 6.25 mg/kg/injection, schedule: Q01DX009 (ip), vehicle: saline 102 % of control | dose: 6.25 mg/kg/injection, schedule: Q04DX003 (ip), vehicle: saline 95 % of control | dose: 12.5 mg/kg/injection, schedule: Q01DX009 (ip), vehicle: saline 102 % of control | dose: 12.5 mg/kg/injection, schedule: Q04DX003 (ip), vehicle: saline 98 % of control | dose: 25.0 mg/kg/injection, schedule: Q04DX003 (ip), vehicle: saline 93 % of control | dose: 75.0 mg/kg/injection, schedule: Q01DX001 (ip), vehicle: other 98 % of control

O=C(O)c1cccc(NC(=O)C(F)(F)F)c1
inactive: [12] 94 % of control | [6] 102 % of control | [13] 96 % of control | [7] 108 % of control | dose: 400.0 mg/kg/injection, schedule: Q01DX001 (ip), vehicle: Klucel (hydroxypropylcellulose) (HPC) 100 % of control | [8] 103 % of control

O=[N+]([O-])c1ccc2[nH]c(=S)sc2c1
inactive: dose: 25.0 mg/kg/injection, schedule: Q01DX009 (ip), vehicle: Klucel (hydroxypropylcellulose) (HPC) 95 % of control | [4] 95 % of control

N#CC1(N(O)C(=O)Nc2ccccc2Cl)CCCCC1
inactive: [14] 100 % of control | [15] 96 % of control | [16] 91 % of control

COC(=O)c1cc(Cl)cc(NC(C)=O)c1Cl
inactive: [9] 97 % of control | [10] 97 % of control | [11] 97 % of control

Nc1ncnc(N)c1NC(=O)Cc1ccccc1
inactive: [17] 98 % of control | [18] 97 % of control | [19] 98 % of control

CC1(C)Cc2cccc(C(=O)CCCN3CCC4(CC3)C(=O)NCN4c3ccccc3)c2O1
inactive: dose: 50.0 mg/kg/injection, schedule: Q01DX001 (ip), vehicle: Klucel (hydroxypropylcellulose) (HPC) 100 % of control | [12] 102 % of control | [13] 93 % of control

O=C1c2ccccc2C(O)(O)C1(O)C1(O)C(=O)c2ccccc2C1(O)O (stereo unspecified)
inactive: [14] 109 % of control | [15] 103 % of control

CC(=O)Cc1cc(=O)[nH]c(=S)[nH]1
inactive: [20] 95 % of control | [21] 92 % of control | [22] 92 % of control

CCCCN(Cl)C(C)=O
inactive: dose: 100.0 mg/kg/injection, schedule: Q01DX001 (ip), vehicle: saline 96 % of control | dose: 200.0 mg/kg/injection, schedule: Q01DX001 (ip), vehicle: saline 100 % of control | dose: 400.0 mg/kg/injection, schedule: Q01DX001 (ip), vehicle: saline 96 % of control

O=[N+]([O-])c1cccc(OCCCOc2ccc(S(=O)(=O)F)cc2)c1
inactive: [17] 96 % of control | [18] 98 % of control | [19] 90 % of control

CC/C=C(\CCC)CCCC
inactive: [23] 94 % of control | [24] 97 % of control | [25] 94 % of control

Cc1ccc(NC(=O)Oc2ccc([N+](=O)[O-])cc2)cc1S(=O)(=O)F
inactive: [17] 100 % of control and 101 % of control | [21] 98 % of control and 101 % of control | [23] 94 % of control and 99 % of control | [1] 98 % of control and 102 % of control | [18] 97 % of control and 100 % of control | [22] 103 % of control and 109 % of control | [24] 100 % of control and 90 % of control | [2] 94 % of control and 102 % of control | [19] 104 % of control and 107 % of control | [25] 96 % of control and 101 % of control | [3] 98 % of control

CCCCCCCC(=O)N1CCCCC1CC (stereo unspecified)
inactive: [23] 96 % of control | [24] 86 % of control

Cc1cc(=O)c2cccc(C)c2[nH]1
inactive: [5] 95 % of control | [6] 95 % of control | [26] 90 % of control | [7] 98 % of control | [8] 98 % of control

O=C(Nc1ccccc1C(F)(F)F)Oc1ccc(Cl)cc1Cc1ccccc1
inactive: [21] 93 % of control | [23] 117 % of control | [22] 101 % of control | [24] 98 % of control | dose: 400.0 mg/kg/injection, schedule: Q01DX009 (ip), vehicle: saline with Tween-80 101 % of control | [25] 98 % of control

O=C(Nc1ccc([N+](=O)[O-])cc1)N(c1ccccn1)c1ccccn1
inactive: [14] 89 % of control | [15] 91 % of control | [16] 95 % of control

N/C(Cc1ccc(N)cc1)=N\O
inactive: dose: 25.0 mg/kg/injection, schedule: Q01DX009 (ip), vehicle: saline with Tween-80 97 % of control | [20] 101 % of control | [21] 95 % of control

CC1CCC(C(C)C)C(N(C)Cc2cc(Cl)cc(Cl)c2O)C1 (stereo unspecified)
inactive: [4] 107 % of control | [5] 105 % of control | [6] 104 % of control | [26] 107 % of control | [7] 98 % of control | [8] 101 % of control

NC(CCC(=O)O)C(=O)NC(CO)C(=O)O (stereo not drawn) (H-Glu-Ser-OH; configuration not given here)
inactive: [17] 92 % of control | [18] 89 % of control
